Assays:
[1] = molecular target: Dual specificity mitogen-activated protein kinase kinase 1 (Homo sapiens, UniProt Q02750); details: at 10 µM
[2] = molecular target: T1, Activin receptor type-1B (Homo sapiens) (UniProt P36896); assay: Selectivity interaction (KinomeScan (DiscoverX)) EUB0000607a ACVR1B; details: at 10 µM
T1 sequence (whole entry): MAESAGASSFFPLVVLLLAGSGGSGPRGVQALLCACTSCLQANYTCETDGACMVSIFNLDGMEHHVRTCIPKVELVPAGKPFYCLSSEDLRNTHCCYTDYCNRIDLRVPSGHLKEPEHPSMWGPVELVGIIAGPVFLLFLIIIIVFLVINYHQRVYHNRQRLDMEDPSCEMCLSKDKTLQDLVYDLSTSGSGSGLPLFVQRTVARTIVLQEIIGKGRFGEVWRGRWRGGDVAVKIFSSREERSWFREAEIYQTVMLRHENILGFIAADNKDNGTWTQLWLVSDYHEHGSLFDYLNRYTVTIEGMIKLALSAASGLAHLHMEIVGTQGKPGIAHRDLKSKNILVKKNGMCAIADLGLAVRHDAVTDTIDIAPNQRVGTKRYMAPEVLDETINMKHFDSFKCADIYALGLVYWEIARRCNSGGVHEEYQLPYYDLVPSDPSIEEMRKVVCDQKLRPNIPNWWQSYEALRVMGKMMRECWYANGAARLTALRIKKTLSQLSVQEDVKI

[3] = molecular target: T2, Mitogen-activated protein kinase 12 (Homo sapiens) (UniProt P53778); assay: Selectivity interaction (KinomeScan (DiscoverX)) EUB0000607a MAPK12; details: at 10 µM
T2 sequence (whole entry): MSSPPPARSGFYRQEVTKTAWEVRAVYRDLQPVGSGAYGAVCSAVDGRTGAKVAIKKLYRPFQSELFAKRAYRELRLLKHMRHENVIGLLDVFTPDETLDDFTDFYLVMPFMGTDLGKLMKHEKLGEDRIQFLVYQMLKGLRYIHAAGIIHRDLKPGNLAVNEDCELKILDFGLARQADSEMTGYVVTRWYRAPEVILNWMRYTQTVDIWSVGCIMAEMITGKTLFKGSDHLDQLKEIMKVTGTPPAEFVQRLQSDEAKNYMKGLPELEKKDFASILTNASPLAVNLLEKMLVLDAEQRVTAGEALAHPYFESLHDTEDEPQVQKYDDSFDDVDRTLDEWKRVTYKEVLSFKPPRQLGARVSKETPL

[4] = molecular target: Tyrosine-protein kinase ABL2 (Homo sapiens, UniProt P42684); assay: Selectivity interaction (ActivX KiNativ screen (ex vivo kinase selectivity in human PBMCs)) EUB0001619a ABL2; assay type: cell-based; details: PBMC, at 1 µM
[5] = molecular target: Tyrosine-protein kinase CSK (Homo sapiens) (UniProt P41240); assay: Selectivity interaction (ActivX KiNativ screen (ex vivo kinase selectivity in human PBMCs)) EUB0001619a CSK; assay type: cell-based; details: PBMC, at 1 µM
[6] = molecular target: Cyclin-dependent kinase 15 (Homo sapiens) (UniProt Q96Q40); assay: Selectivity interaction (KinomeScan (DiscoverX)) EUB0000045b CDK15
[7] = molecular target: Histone-lysine N-methyltransferase PRDM9 (Homo sapiens) (UniProt Q9NQV7); details: at 10 µM
[8] = molecular target: T3, Tyrosine-protein kinase ZAP-70 (Homo sapiens) (UniProt P43403); details: at 10 µM
T3 sequence (whole entry): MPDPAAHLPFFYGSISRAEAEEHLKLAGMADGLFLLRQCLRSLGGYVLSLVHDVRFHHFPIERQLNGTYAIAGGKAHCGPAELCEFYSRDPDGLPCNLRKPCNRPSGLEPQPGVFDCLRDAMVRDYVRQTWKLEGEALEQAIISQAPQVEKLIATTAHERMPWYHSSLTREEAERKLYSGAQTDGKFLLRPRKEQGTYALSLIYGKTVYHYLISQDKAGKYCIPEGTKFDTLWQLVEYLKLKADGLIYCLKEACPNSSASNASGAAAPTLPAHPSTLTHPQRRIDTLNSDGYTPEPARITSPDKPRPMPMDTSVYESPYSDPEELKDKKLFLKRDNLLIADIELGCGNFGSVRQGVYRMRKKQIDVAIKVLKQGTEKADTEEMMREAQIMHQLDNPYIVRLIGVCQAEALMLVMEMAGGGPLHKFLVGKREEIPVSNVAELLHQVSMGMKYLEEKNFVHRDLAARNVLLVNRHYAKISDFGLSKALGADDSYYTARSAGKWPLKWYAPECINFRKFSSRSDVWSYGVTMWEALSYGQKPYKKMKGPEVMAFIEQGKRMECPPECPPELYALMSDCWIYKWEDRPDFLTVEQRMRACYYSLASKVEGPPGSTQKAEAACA

[9] = molecular target: Calcium/calmodulin-dependent protein kinase type II subunit delta (Homo sapiens) (UniProt Q13557); assay: Selectivity interaction (Kinase panel (Invitrogen)) EUB0000639a CAMK2D; details: at 200 nM
[10] = molecular target: Ribosomal protein S6 kinase alpha-3 (Homo sapiens, UniProt P51812); assay: Selectivity interaction (ActivX KiNativ screen (kinase selectivity in THP-1 cell lysates)) EUB0000639a RPS6KA3; assay type: subcellular; details: lysate, at 1 µM
[11] = molecular target: Serine/threonine-protein kinase PRP4 homolog (Homo sapiens) (UniProt Q13523); assay: Selectivity interaction (KinomeScan (DiscoverX)) EUB0000229b PRPF4B; details: at 10 µM
[12] = molecular target: T4, Aurora kinase A (Homo sapiens) (UniProt O14965); assay: Selectivity interaction (KinomeScan (DiscoverX)) EUB0000666a STK6; details: at 10 µM
T4 sequence (whole entry): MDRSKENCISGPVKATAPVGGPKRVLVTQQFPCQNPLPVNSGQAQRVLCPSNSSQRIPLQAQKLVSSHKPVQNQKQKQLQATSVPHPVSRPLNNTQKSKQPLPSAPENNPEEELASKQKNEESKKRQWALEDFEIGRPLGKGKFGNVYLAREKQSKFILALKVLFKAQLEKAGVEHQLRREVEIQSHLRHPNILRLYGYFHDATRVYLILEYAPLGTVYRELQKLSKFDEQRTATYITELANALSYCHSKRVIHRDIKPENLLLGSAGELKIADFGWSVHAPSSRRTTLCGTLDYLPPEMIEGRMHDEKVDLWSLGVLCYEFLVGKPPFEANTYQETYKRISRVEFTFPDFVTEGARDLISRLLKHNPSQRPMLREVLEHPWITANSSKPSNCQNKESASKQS

[13] = molecular target: Protein polybromo-1 (Homo sapiens) (UniProt Q86U86); assay: Selectivity interaction (Human bromodomain panel (DSF assay)) EUB0000233b PBRM1
[14] = molecular target: Tyrosine-protein kinase Fer (Homo sapiens) (UniProt P16591); assay: Selectivity interaction (KinomeScan (DiscoverX)) EUB0000695a FER; details: at 100 nM
[15] = molecular target: Maternal embryonic leucine zipper kinase (Homo sapiens) (UniProt Q14680); assay: Selectivity interaction (KinomeScan (DiscoverX)) EUB0000695a MELK; details: at 100 nM

Chain of Cyclin-dependent kinase 15 (Homo sapiens) (Q96Q40 whole entry): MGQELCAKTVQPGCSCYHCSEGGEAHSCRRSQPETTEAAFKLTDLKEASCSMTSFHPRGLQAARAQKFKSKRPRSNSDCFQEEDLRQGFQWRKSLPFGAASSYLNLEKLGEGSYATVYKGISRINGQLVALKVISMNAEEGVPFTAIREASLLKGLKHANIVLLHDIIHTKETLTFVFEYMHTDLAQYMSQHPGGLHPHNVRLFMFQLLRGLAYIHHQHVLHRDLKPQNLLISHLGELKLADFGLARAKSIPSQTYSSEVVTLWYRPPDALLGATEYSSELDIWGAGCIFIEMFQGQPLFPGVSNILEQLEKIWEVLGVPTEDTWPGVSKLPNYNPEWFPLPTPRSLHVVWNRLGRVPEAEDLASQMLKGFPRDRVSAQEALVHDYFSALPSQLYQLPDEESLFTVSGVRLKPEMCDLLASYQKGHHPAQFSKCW
Chain of Protein polybromo-1 (Homo sapiens) (Q86U86 whole entry): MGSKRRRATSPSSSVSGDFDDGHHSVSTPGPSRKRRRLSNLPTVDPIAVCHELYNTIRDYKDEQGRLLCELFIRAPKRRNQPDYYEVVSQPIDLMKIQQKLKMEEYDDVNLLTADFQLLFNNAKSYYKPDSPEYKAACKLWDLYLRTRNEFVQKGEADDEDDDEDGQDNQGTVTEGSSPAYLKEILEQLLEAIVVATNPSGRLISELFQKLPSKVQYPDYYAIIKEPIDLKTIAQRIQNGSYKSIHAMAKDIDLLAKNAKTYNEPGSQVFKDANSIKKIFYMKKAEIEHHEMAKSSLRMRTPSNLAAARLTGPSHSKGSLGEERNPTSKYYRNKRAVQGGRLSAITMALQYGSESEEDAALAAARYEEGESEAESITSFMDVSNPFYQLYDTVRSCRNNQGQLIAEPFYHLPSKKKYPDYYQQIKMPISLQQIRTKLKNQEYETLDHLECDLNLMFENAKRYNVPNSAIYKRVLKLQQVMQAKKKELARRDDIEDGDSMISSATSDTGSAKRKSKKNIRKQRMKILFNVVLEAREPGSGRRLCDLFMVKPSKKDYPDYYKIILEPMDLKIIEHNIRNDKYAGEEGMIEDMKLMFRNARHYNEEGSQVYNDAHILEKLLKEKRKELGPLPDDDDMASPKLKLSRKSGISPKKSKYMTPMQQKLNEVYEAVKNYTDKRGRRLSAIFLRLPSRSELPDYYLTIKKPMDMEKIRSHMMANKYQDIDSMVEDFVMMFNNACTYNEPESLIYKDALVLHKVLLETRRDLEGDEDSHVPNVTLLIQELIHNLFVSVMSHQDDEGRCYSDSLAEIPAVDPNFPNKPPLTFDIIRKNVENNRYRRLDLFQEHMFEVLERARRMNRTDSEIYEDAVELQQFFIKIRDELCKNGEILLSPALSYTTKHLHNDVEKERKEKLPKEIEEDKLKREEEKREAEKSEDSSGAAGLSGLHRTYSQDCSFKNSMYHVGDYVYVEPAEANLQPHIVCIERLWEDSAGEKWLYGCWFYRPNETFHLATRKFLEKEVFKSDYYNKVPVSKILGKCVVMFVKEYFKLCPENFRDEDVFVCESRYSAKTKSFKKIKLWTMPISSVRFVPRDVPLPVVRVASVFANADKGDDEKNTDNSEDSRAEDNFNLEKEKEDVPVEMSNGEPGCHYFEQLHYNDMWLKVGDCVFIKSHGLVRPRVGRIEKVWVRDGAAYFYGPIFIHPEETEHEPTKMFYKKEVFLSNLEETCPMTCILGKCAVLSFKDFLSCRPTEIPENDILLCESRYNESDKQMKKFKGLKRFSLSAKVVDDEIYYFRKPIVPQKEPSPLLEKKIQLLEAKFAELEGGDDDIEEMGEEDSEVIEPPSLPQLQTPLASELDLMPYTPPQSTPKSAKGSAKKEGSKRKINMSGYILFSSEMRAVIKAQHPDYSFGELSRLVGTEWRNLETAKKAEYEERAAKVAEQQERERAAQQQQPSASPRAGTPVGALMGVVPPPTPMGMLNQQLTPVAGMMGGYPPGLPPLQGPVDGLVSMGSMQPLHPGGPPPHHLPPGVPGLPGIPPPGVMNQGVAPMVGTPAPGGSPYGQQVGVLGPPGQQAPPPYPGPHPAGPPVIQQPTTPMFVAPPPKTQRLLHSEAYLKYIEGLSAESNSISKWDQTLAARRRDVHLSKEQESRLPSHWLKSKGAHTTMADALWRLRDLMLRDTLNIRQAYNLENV
Chain of Serine/threonine-protein kinase PRP4 homolog (Homo sapiens) (Q13523 whole entry): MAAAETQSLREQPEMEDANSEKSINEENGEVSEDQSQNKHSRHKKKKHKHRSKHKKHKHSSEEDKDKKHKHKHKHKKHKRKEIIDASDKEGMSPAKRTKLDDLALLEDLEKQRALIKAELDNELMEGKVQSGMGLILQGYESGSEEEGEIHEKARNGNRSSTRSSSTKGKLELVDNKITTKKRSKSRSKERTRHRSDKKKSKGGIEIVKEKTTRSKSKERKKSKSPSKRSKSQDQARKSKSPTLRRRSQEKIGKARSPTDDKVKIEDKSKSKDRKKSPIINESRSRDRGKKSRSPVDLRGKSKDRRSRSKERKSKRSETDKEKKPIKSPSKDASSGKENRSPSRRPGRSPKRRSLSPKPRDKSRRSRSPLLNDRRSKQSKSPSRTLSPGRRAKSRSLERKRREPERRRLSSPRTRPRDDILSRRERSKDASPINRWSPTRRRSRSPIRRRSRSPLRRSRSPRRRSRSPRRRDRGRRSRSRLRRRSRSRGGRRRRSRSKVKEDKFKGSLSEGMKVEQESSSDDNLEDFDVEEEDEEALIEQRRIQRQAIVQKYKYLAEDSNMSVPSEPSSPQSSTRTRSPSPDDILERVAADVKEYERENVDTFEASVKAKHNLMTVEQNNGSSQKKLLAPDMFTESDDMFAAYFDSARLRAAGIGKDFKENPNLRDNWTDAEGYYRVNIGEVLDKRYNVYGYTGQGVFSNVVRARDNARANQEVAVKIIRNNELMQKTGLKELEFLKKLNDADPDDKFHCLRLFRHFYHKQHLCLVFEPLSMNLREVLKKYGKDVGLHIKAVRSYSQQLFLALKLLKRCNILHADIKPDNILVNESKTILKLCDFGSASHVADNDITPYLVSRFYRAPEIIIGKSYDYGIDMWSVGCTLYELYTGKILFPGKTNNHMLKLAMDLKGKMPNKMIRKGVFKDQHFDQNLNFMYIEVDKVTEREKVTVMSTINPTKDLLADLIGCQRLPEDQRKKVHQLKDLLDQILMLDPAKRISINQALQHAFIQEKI
Chain of Tyrosine-protein kinase ABL2 (P42684 whole entry): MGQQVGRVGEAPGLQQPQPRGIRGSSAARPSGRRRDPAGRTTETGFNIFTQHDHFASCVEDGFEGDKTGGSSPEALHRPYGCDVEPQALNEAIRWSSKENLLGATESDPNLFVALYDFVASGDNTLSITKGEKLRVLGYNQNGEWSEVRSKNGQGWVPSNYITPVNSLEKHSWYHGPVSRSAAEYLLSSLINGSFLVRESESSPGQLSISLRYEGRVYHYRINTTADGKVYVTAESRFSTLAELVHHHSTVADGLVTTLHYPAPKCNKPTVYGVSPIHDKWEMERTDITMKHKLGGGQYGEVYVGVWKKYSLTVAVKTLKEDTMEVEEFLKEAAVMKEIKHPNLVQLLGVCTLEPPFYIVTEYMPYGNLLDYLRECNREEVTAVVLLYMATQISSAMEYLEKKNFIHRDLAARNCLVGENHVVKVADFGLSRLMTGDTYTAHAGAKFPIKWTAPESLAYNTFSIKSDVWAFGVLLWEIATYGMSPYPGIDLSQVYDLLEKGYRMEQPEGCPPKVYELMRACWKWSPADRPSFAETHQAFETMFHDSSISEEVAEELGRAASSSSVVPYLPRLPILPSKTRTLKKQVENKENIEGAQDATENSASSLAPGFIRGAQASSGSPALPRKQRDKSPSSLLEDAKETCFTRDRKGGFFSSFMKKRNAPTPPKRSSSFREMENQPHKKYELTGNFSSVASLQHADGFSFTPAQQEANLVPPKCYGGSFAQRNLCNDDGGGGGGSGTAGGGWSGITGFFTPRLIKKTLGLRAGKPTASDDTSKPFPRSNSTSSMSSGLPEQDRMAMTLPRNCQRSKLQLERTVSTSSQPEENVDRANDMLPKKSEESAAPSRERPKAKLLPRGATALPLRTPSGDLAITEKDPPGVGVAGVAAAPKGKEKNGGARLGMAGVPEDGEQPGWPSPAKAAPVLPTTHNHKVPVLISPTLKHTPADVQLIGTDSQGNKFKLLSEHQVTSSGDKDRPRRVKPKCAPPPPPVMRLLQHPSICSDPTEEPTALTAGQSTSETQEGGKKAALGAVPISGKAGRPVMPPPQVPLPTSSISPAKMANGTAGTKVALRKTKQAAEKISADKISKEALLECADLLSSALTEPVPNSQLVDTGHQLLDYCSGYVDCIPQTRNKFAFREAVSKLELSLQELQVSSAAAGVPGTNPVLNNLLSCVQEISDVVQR
Chain of Dual specificity mitogen-activated protein kinase kinase 1 (Q02750 whole entry): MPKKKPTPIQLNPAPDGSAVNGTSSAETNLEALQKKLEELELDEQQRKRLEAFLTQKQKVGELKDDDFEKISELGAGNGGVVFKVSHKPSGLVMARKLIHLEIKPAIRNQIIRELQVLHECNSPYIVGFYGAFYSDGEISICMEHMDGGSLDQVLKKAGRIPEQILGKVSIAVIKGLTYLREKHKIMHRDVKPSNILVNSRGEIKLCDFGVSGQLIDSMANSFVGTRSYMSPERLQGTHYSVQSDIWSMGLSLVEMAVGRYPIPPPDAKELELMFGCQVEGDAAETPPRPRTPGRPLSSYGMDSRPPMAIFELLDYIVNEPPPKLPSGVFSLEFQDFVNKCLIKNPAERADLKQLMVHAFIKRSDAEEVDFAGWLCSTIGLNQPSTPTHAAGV

CC(=O)Nc1cccc(-n2c(=O)n(C3CC3)c(=O)c3c(Nc4ccc(I)cc4F)n(C)c(=O)c(C)c32)c1
% of control [1]: 28%

CNC(=O)Nc1ccc(-c2nc(N3CC4CCC(C3)O4)c3cnn(C4CCC5(CC4)OCCO5)c3n2)cc1
% of control [2]: 100%
% of control [3]: 54%

N#Cc1cccc(-c2c[nH]c3ncnc(N4CCOCC4)c23)c1
% of inhibition [4]: -1%
% of inhibition [5]: -2%

C=CC(=O)Nc1cc(-n2c(=O)ccc3cnc4ccc(-c5ccc(NS(C)(=O)=O)cc5)cc4c32)ccc1C
% of control ([6]; at 1 µM): 100%
% of control ([6]; at 10 µM): 72%

CNCCN1CCC(c2cc(CN(C)C(=O)c3cccc(Oc4ccccc4)c3)ccn2)CC1
% activity [7]: > 90%

Cc1cc([C@@H](C)Nc2ccccc2C(=O)O)c2nc(N3CCOCC3)cc(=O)n2c1 [AZD-6482]
% of control [8]: 100%

CC[C@@H]1[C@H](F)C(=O)N[C@@H]1COc1nccc2cc(C(N)=O)c(OC)cc12 [ZIMLOVISERTIB]
% of inhibition [9]: 24.9%
% of inhibition [10]: 0.1%

COc1cc(N(C)c2ccnc3ccc(C(F)(F)F)cc23)cc(OC)c1OC
% binding [11]: 100%

O=C(NOC[C@H](O)CO)c1ccc(F)c(F)c1Nc1ccc(I)cc1F
% of control [12]: 100%

CN(C)CCCOc1ccc(-c2cc(NCCCn3cccn3)nc(S(C)(=O)=O)n2)cc1
dTM [13]: < 2 K

Cc1cc(F)c(C(=O)Nc2cccc(-c3nncn3C(C)C)n2)cc1-n1cnc(C2CC2)c1
% of control [14]: 72%
% of control [15]: 100%

Reference: ChEMBL document CHEMBL5465560, “Selectivity Literature for EUbOPEN Chemogenomic Library” (2024)
